PubChem BioAssay (NCI)
Where “and” joins values, the source holds several entries; their conditions need not be identical. Identical values can stand only once.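 Interpolation was linear, between the two tested concentrations surrounding the appropriate level; five concentrations were tested over 48 hours in 96-well plates. Here, GI50 denotes the concentration required for 50% inhibition of growth. TGI marks complete inhibition of growth.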

What was measured:
Assay in all cases: growth of human tumour cells (NCI), 48 h
[1] = system: HOP-62 NSCLC
[2] = system: HOP-92 NSCLC
[3] = system: IGROV1 ovarian
[4] = system: K-562 leukemia
[5] = system: NCI-H460 lung
[6] = system: OVCAR-4 ovarian
[7] = system: SF-295 CNS
[8] = system: SNB-19 CNS
[9] = system: UACC-257 melanoma
[10] = system: SF-539 CNS

SMILES	TGI [1]	TGI [2]	TGI [3]	TGI [4]	TGI [5]	TGI [6]	TGI [7]	TGI [8]	TGI [9]	TGI [10]	GI50 [1]	GI50 [2]	GI50 [3]	GI50 [4]	GI50 [5]	GI50 [6]	GI50 [7]	GI50 [10]	GI50 [8]	GI50 [9]
O=C(O)C12C=CC(C1)c1ccccc12 (centres undefined)	> 100 µM	> 100 µM	> 100 µM	> 100 µM	> 100 µM	> 100 µM	> 100 µM	> 100 µM	> 100 µM	–	–	–	–	–	–	–	–	–	–	–
Nc1ccccc1SC(/C=C/NNC1=NC(c2ccccc2)C(c2ccccc2)=NN1)c1ccccc1 (centres undefined)	34.3 µM	22.1 µM	32.5 µM	35.7 µM	51.9 µM	28.7 µM	24.5 µM	43.8 µM	28.1 µM	25.9 µM	–	–	–	–	–	–	–	–	–	–
S=C(Nc1ccc(-c2nc3ccccc3s2)cc1)Nc1ccc(-c2nc3ccccc3s2)cc1	> 100 µM	53.6 µM	41.7 µM	87.6 µM	63.9 µM	99.4 µM	> 100 µM	> 100 µM	48 µM	42.4 µM	37.5 µM	15.3 µM	13 µM	26.4 µM	21 µM	24.4 µM	17.6 µM	16.6 µM	43 µM	24.5 µM
O=C1N=C2N=C(c3ccc(Cl)cc3)N(c3ccc(Cl)cc3)N2Sc2ccccc21	> 100 µM	> 100 µM	> 100 µM	> 100 µM	> 100 µM	> 100 µM	> 100 µM	> 100 µM	> 100 µM	> 100 µM	–	–	–	–	–	–	–	–	–	–
O=C(Cc1nc2ccccc2s1)C(=O)Nc1cccc(C(F)(F)F)c1	> 100 µM	> 100 µM	> 100 µM	–	> 100 µM	> 100 µM	> 100 µM	> 100 µM	> 100 µM	> 100 µM	–	–	–	–	–	–	–	–	–	–
CCCC(=O)Nc1cc(/C=C/C(=O)N2C[C@@H]3C[C@]34C2=CC(=O)c2[nH]cc(C)c24)n(C)c1	25 µM	1.96 µM and 0.741 µM	25 µM	25 µM	2.51 µM and 0.394 µM	1.43 µM and 0.474 µM	25 µM	25 µM and 11.3 µM	–	4.59 µM	–	0.282 µM	–	–	0.053 µM	0.18 µM	–	–	0.18 µM	–
O=C(NNC(=O)c1ccncc1)C(=O)Nc1cc(Cl)c(Cl)cc1Cl	> 100 µM	> 100 µM	> 100 µM	> 100 µM	> 100 µM	> 100 µM	> 100 µM	> 100 µM	> 100 µM	> 100 µM	–	–	–	–	–	–	–	–	–	–
CC(C)(C)OC(=O)NCCCCCCCCCCCCn1c2c(c3ccccc3c1=O)C(=O)c1ccccc1-2	> 100 µM	39.9 µM	–	> 100 µM	> 100 µM	> 100 µM	53 µM	83.5 µM	> 100 µM	61.9 µM	32.7 µM	16.8 µM	–	46.9 µM	> 100 µM	> 100 µM	17.5 µM	20.6 µM	32 µM	> 100 µM
CCNC(=O)COc1ccc(Cl)c(C)c1	> 100 µM	> 100 µM	> 100 µM	> 100 µM	> 100 µM	> 100 µM	> 100 µM	> 100 µM	> 100 µM	> 100 µM	–	–	–	–	–	–	–	–	–	–
